In the supplement of paper PMC11451515:

Tested on: NOMO1
Experiment: cell viability relative to DMSO control; higher = less cytotoxic
Conditions: 48 h
Outline: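 NOMO1 or SEM cells were plated at 500 cells/well and P12-Ichikawa cells at 1000 cells/well in 1536-well plates (5 μl), after each leukemia line had been adapted for at least four passages in each medium. Pin dosing delivered library compounds in DMSO at 11 threefold concentrations, 47 μM to 0.79 nM. CellTiter-Glo One luminescence was read after 48 h at 37°C. Viability is reported as a per-plate percentage of DMSO wells, with cell-free wells as background.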

[1] = HPLM + 10% dialyzed FBS, 0.000781 µM
[2] = HPLM + 10% dialyzed FBS, 0.00234 µM
[3] = HPLM + 10% dialyzed FBS, 0.00702 µM
[4] = HPLM + 10% dialyzed FBS, 0.0211 µM
[5] = HPLM + 10% dialyzed FBS, 0.0632 µM
[6] = HPLM + 10% dialyzed FBS, 0.19 µM
[7] = HPLM + 10% dialyzed FBS, 0.569 µM
[8] = HPLM + 10% dialyzed FBS, 1.71 µM
[9] = HPLM + 10% dialyzed FBS, 5.12 µM
[10] = HPLM + 10% dialyzed FBS, 15.4 µM
[11] = HPLM + 10% dialyzed FBS, 46.1 µM
[12] = RPMI 5 mM glucose + 10% FBS, 0.000781 µM
[13] = RPMI 5 mM glucose + 10% FBS, 0.00234 µM
[14] = RPMI 5 mM glucose + 10% FBS, 0.00702 µM
[15] = RPMI 5 mM glucose + 10% FBS, 0.0211 µM
[16] = RPMI 5 mM glucose + 10% FBS, 0.0632 µM
[17] = RPMI 5 mM glucose + 10% FBS, 0.19 µM
[18] = RPMI 5 mM glucose + 10% FBS, 0.569 µM
[19] = RPMI 5 mM glucose + 10% FBS, 1.71 µM
[20] = RPMI 5 mM glucose + 10% FBS, 5.12 µM
[21] = RPMI 5 mM glucose + 10% FBS, 15.4 µM
[22] = RPMI 5 mM glucose + 10% FBS, 46.1 µM
[23] = RPMI 5 mM glucose + 10% dialyzed FBS, 0.000781 µM
[24] = RPMI 5 mM glucose + 10% dialyzed FBS, 0.00234 µM
[25] = RPMI 5 mM glucose + 10% dialyzed FBS, 0.00702 µM
[26] = RPMI 5 mM glucose + 10% dialyzed FBS, 0.0211 µM
[27] = RPMI 5 mM glucose + 10% dialyzed FBS, 0.0632 µM
[28] = RPMI 5 mM glucose + 10% dialyzed FBS, 0.19 µM
[29] = RPMI 5 mM glucose + 10% dialyzed FBS, 0.569 µM
[30] = RPMI 5 mM glucose + 10% dialyzed FBS, 1.71 µM
[31] = RPMI 5 mM glucose + 10% dialyzed FBS, 5.12 µM
[32] = RPMI 5 mM glucose + 10% dialyzed FBS, 15.4 µM
[33] = RPMI 5 mM glucose + 10% dialyzed FBS, 46.1 µM

| SMILES | cell viability [1] [%] | cell viability [2] [%] | cell viability [3] [%] | cell viability [4] [%] | cell viability [5] [%] | cell viability [6] [%] | cell viability [7] [%] | cell viability [8] [%] | cell viability [9] [%] | cell viability [10] [%] | cell viability [11] [%] | cell viability [12] [%] | cell viability [13] [%] | cell viability [14] [%] | cell viability [15] [%] | cell viability [16] [%] | cell viability [17] [%] | cell viability [18] [%] | cell viability [19] [%] | cell viability [20] [%] | cell viability [21] [%] | cell viability [22] [%] | cell viability [23] [%] | cell viability [24] [%] | cell viability [25] [%] | cell viability [26] [%] | cell viability [27] [%] | cell viability [28] [%] | cell viability [29] [%] | cell viability [30] [%] | cell viability [31] [%] | cell viability [32] [%] | cell viability [33] [%] |
| --- | --- | --- | --- | --- | --- | --- | --- | --- | --- | --- | --- | --- | --- | --- | --- | --- | --- | --- | --- | --- | --- | --- | --- | --- | --- | --- | --- | --- | --- | --- | --- | --- | --- |
| O=C(NCC1CCOCC1)c1cnc(Nc2ccc(Cl)cc2Cl)nc1C(F)(F)F | 101 | 121 | 121 | 114 | 126 | 117 | 122 | 114 | 131 | 141 | 127 | 96.5 | 112 | 116 | 121 | 116 | 117 | 117 | 126 | 127 | 131 | 124 | 109 | 129 | 116 | 122 | 131 | 121 | 122 | 116 | 120 | 134 | 131 |
| C[C@H]1Oc2cc(cnc2N)-c2c(nn(C)c2C#N)CN(C)C(=O)c2ccc(F)cc21 | – | – | – | – | – | – | – | – | – | – | – | 106 | 132 | 125 | 108 | 119 | 126 | 123 | 123 | 131 | 106 | 101 | – | – | – | – | – | – | – | – | – | – | – |
| C[C@@H](N)C1CC[C@@H](CC1)C(=O)NC2=CC=NC=C2 (stereo not given in full) | 98.8 | 114 | 117 | 126 | 123 | 136 | 128 | 132 | 119 | 113 | 100 | 114 | 97.3 | 114 | 106 | 101 | 120 | 122 | 104 | 123 | 93.5 | 93.1 | 113 | 105 | 110 | 91 | 105 | 116 | 115 | 113 | 113 | 94.1 | 90 |
| CS[C@H]1SC[C@@H]2C(=O)N(C)[C@H](C(C)C)C(=O)OC[C@H](NC(=O)c3cnc4ccccc4n3)C(=O)N[C@H](C)C(=O)N(C)[C@H]1C(=O)N(C)[C@H](C(C)C)C(=O)OC[C@H](NC(=O)c1cnc3ccccc3n1)C(=O)N[C@H](C)C(=O)N2C | 90.5 | 92.4 | 81 | 34 | 7.25 | 7.68 | 7.01 | 6.88 | 6.12 | 5.83 | 3.83 | 86.1 | 83 | 92.4 | 44.5 | 5.63 | 5.77 | 5.98 | 5.95 | 5.48 | 4.23 | 4.39 | 92.6 | 81.1 | 83.2 | 49.8 | 5.73 | 5.24 | 5.79 | 5.79 | 5.29 | 4 | 3.33 |
